In patent publication US20210371413A1, “POLYCYCLIC AMIDES AS CYTOTOXIC AGENTS” (FEMTOGENIX LIMITED, priority 2018, published 2021) one finds IC50 and MIC data, which are given here for one compound.

What all share (assay type): cell-based
One assay has as its system U138-MG (Glioblastoma). Description: In vitro cytotoxicity, MTT assay, U138-MG. Particulars: Homo sapiens; U138-MG (Glioblastoma), MTT, 72 hour incubation; read-out: Cytotoxicity. On the procedure: (§1) The in vitro cytotoxicity of a selection of compounds were evaluated in a panel of cell lines using the standard MTT assay for a 72 hour incubation period (Table 2). Free payloads produced cytotoxicities in the nanomolar range.
(§2) Tumor cell lines were maintained in RPMI1640 medium supplemented with 10% heat-inactivated fetal bovine serum, 2 mM L-glutamine and 1 mM sodium pyruvate. 1800 cells per well were seeded in a volume of 180 μl in a 96-well flat bottom polystyrene plate. The cells were allowed to adhere overnight at 37° C. in a CO2 incubator. Ligands were initially formulated in DMSO, and stocks stored at −80° C. They were then further formulated at lox concentration in RPMI1640 medium. 20 ul of diluted samples were added into each treatment well. On each plate, blank wells with no cells, and untreated wells containing cells, were included. Plates were then cultured at 37° C. in a CO2 incubator for 72 hrs. Cytotoxicity was evaluated using a tetrazolium salt-based assay, the MTT assay. After 72 hours, the supernatant was removed from each well and 200 μl of a sterile filtered 500 μg/ml MTT solution in water added to each well. The plates were then incubated at 37° C. in a CO2 incubator for 4 hrs. The supernatant was then removed and the formazan crystals formed solubilized by adding 150 μl of DMSO to each well. The plate was then read on a plate reader at 540 nm, and percentage cell survival calculated as follows: ((mean absorbance treated wells at concentration x−mean absorbance blank wells)+(mean absorbance untreated wells at concentration x−mean absorbance blank wells))×100. Data were plotted as concentration in nM vs. % cell survival in Microsoft Excel, and IC50 values (concentration where cell survival is reduced by a half) were determined from the graph.

The subject of the next assay is A431 (Skin). Description: In vitro cytotoxicity, MTT assay, A431. Particulars: Homo sapiens, A-431; A431 (Skin), MTT, 72 hour incubation; read-out: Cytotoxicity. As for the experimental part:
as §1, §2

The next assay relates to REH (ALL). Description: In vitro cytotoxicity, MTT assay, REH. Particulars: REH (ALL), MTT, 72 hour incubation; read-out: Cytotoxicity. As for the experimental part:
as §1, §2

In a further assay the test system is E. coli K12. Description: MIC assay, E. coli K12. As to conditions: Escherichia coli, K12, E. coli K12 (Gram-negative), overnight (16-20 hour) incubation. On the procedure:
(§3) The antimicrobial activity of a selection of compounds were evaluated in a Gram-negative, Gram-positive and multi-resistant bacteria using the standard minimum inhibitory concentration (MIC) assay for an overnight (16-20 hour) incubation period. Commercially marketed antibiotics (Table 3) were used as positive controls during the study.
(§4) Mueller-Hinton broth (MH Broth) (Sigma-Aldrich; Millipore, cat. no. 70192) and Mueller-Hinton agar (MHA) (Sigma-Aldrich; Millipore, cat. no. 70191) were prepared as per manufacturer's instructions and sterilized by autoclaving. Approximately 20 mL of MHA was poured onto 15×100 mm petri dishes and allowed to set. Agar plates were then stored in plastic bags in an inverted position at 4° C.
(§5) Bacterial strains were provided in the form of a glycerol stock, stored at −80° C. For the purpose of preparation of bacterial suspension, appropriate strains were removed from −80° C. storage onto dry ice and not allowed to freeze-thaw.
(§6) Stock solutions of 16, 45 and 73 were provided in DMSO at 1.28 mg/mL concentration. From this stock solution, working solutions of the desired concentration were prepared by diluting with MHB.
(§7) MIC assay methodology was adapted from previously published work.
(§8) Bacterial isolate to be tested was streaked onto a nutrient-rich MH agar plate and incubated overnight at 37° C. in order to obtain single colonies.
(§9) After overnight incubation, single colonies with the same morphological appearance were chosen from the agar plate. These were touched using a sterile loop and transferred into a tube containing 10 mL of a MH broth. They were then mixed using vortex mixer and incubated at 35-37° C. in a shaker at 200 r.p.m. overnight.
(§10) Determination of OD600 and cfu/mL count OD600 (the optical density of a sample measured at a wavelength of 600 nm) of the overnight culture was measured. Because of the loss of linearity at OD600 values […], it was necessary to dilute the sample until the OD600 value was below 1.0. For all tested bacteria, a dilution of 1:10 was appropriate (100 μL in 900 μL broth).
(§11) The overnight culture was then diluted 1:100 using sterile tubes and MH broth (dilution: 10^−2). Serial dilution was then performed six times until dilution of 10^−8 was reached. 100 μL of dilutions 10^−7 and 10^−8 were plated onto MH agar plates in triplicate using a sterile cell spreader and incubated overnight at 37° C.
(§12) After overnight incubation, colonies on plates were counted and cfu per mL calculated. The following formula was applied: […]
For the generation of overnight cultures to be used for preparation of the bacterial suspension for MIC tests, a single colony of bacteria was selected using a sterile loop and a sterile tube with MH broth was inoculated followed by overnight incubation at […] in a shaker set to 200 r.p.m.
After overnight incubation, the OD600 was measured and the overnight culture was diluted accordingly to obtain 1×10^8 cfu/mL.
Free payload dilutions were prepared as per Table 4.
96-well sterile microtiter plates were used for MIC assay. The plate was filled with the respective free payload or positive control antibiotic concentrations in triplicate. 100 μL of broth was pipetted in the sterility control well (SC, column 12) and 50 μL in the growth control well (GC, column 11).
1×10^8 cfu/mL bacterial suspension was diluted 1:100 and 50 μL added to each well apart from SC. […]
(§13) The 96-well plates were read using a SpectraMax plate reader at an absorbance of 600 nm. […]

The next assay has as its system EMRSA 16. Description: MIC assay, EMRSA 16. As to conditions: Staphylococcus aureus. On the procedure: as §3, §4, §5, §6, §7, §8, §9, §10, §11, §12
(§14) After overnight incubation, the OD600 was measured and the overnight culture was diluted accordingly to obtain 1×10^8 cfu/mL. […]
as §13

In assay [1] the test system is Klebsiella pneumoniae KP4631. As to the kind of experiment: MIC assay, Klebsiella pneumoniae KP4631. As to conditions: Klebsiella pneumoniae, KP4631. On the procedure:
as §3, §4, §5, §6, §7, §8, §9, §10, §11, §12, §14, §13

pIC50: −log10 of the molar value. Values after ≈ are worked out from the molar mass of the structure shown.

On to `COc1cc2c(cc1OCCCC(=O)Nc1cc(C(=O)Nc3ccc(-c4cc(C(=O)Nc5ccncc5)n(C)c4)cc3)n(C)c1)NC[C@@H]1CCCCN1C2=O` [Compound 73, (S)-4-(4-((2-Methoxy-12-oxo-5,6,6a,7,8,9,10,12-octahydrobenzo[e]pyrido-[1,2-a][1,4]diazepin-3-yl)oxy)butanamido)-1-methyl-N-(4-(1-methyl-5-(pyridin-4-ylcarbamoyl)-1H-pyrrol-3-yl)phenyl)-1H-pyrrole-2-carboxamide], for which the pIC50 with U138-MG (Glioblastoma) was 6.52; in the assay with A431 (Skin) it was 6.84; in the assay on REH (ALL) it was 7.43. Besides, the results for the MIC (with E. coli K12; with EMRSA 16; in assay [1]) were 2 µg/mL (≈ 2.69 µM), 0.5 µg/mL (≈ 0.671 µM) and 4 to 8 µg/mL (≈ 5.37 to 10.7 µM), respectively.
